In patent US7605168B2 (Plexxikon, Inc., priority 2004, dated 2009):

Experiments:
[1] = test system: TNF-α release from whole blood cultures stimulated with LPS; test: IC50 by TNF alpha production upon stimulation of whole blood cultures with LPS; type: cell-based; settings: human whole blood (buffy coat) culture, 100 ng/ml LPS, 4 hours; read-out: h TNFα IC50
Procedure, shortened: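 Human buffy coat, diluted with 7 volumes of RPMI/2.5% heat-inactivated FBS, was preincubated with compound (8-point 1:3 series) for 1 h at 37 °C. It was then stimulated with 100 ng/ml LPS (final) for 4 h. Supernatant TNF-α was measured by sandwich ELISA at 450 nm, and IC50 was set between DMSO (0%) and PDE4-inhibitor (100%) controls.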

[2] = test system: TNFα levels in serum of LPS-challenged rats; test: Rat inhibition studies: serum TNFα after iv LPS challenge; type: in vivo; settings: 5 mg/kg po, LPS 0.1 mg/kg iv 2 h after dosing, percent decrease in serum TNFα versus vehicle, read-out: % inhibition r TNFα
Experimental: All studies were done with male rats CD (SD) IGS BR (Crl) (Charles River, France), which were grouped in to 5 animal groups.
At the end of the acclimatization period, the non-fasted rats were weighed, individually identified on the tail with a permanent marker and administered by oral (po) or interperitoneal (ip) route with either vehicle, reference or test compound in a volume of 10 mL/kg adapted to the body weight. The animals were gathered in groups of 5 animals in a polystyrene labeled cage with sawdust covered floors. 2-hours after vehicle, reference or test substance administration, rats received an intravenous (iv) injection of 0.1 mg/kg LPS in a volume of 1 mL/kg of body weight. 2 h after LPS challenge (or as indicated in Tables 3B and 4B), blood samples were collected into tubes without anticoagulant by retro-orbital puncture under gas (isoflurane) anesthesia. Samples were allowed to clot at room temperature for 5 to 10 min then put on ice until there were prepared by centrifugation (6000×g for 3 min at 4° C.) and stored at −20° C. until use. TNFα levels were measured in serum samples in duplicate by ELISA technique according to the manufacturer's procedure (Rat TNFα kit Quantikine M (RTA00, R&D System, France)). Data are reported as percent decrease in observed TNFα levels versus TNFα levels observed for vehicle dosed animal groups.

Compound | IC50 [1] [µM] | inhibition in vivo at 5 mg/kg [2] [%]
CCOc1ccc2ccccc2c1C(=O)n1cc(-c2ccc(OC)c(OC)c2)c2cccnc21 [Compound 52, [3-(3,4-Dimethoxy-phenyl)-pyrrolo[2,3-b]pyridin-1-yl]-(2-ethoxy-naphthalen-1-yl)-methanone] | ≤ 10 | ≥ 20
CCOc1ccccc1C(=O)n1cc(-c2ccc(OC)c(OC)c2)c2cccnc21 [Compound 61, [3-(3,4-Dimethoxy-phenyl)-pyrrolo[2,3-b]pyridin-1-yl]-(2-ethoxy-phenyl)-methanone-amide] | ≤ 10 | ≥ 20
